Experimental data: article PMC8752738, “A propolis-derived small molecule ameliorates metabolic syndrome in obese mice by targeting the CREB/CRTC2 transcriptional complex” (Nature Communications, 2022)
Values joined by “and” are separate entries in the source; they are usually repeats but may differ in a detail not shown here. Equal values may be shown once.

Columns and labels:
Fasting blood glucose = type: in vivo, mouse; design: Blood glucose of CRTC2KO / blood glucose in CRTC2KO, mean: unit not given here; conditions: for blood glucose in CRTC2KO, mean / Blood glucose of CRTC2KO: Figure 9e, 20mg/kg; for blood glucose in CRTC2KO, mean: N 6
[1] = target: T1, CREB / HA-CRTC2 interaction (Mus musculus, UniProt Q01147); assay: Co-immunoprecipitation of HA-CRTC2 with endogenous CREB, primary hepatocytes; type: cell-based; conditions: for HA/CREB in CREB-COIP fraction: Fig 2b replicates, AD-HA-CRTC2 +
T1 construct: expressed in transfected cells; host or cells: mouse primary hepatocytes infected with Ad-HA-Crtc2; CREB is endogenous
Protocol: Fig. 2 APC blocks interaction between CREB and CRTC2. a Analysis of GST-CREB immunoprecipitated with overexpressed FLAG-CRTC2 from the lysates of HEK293T cells. APC (10 μM) was added to the culture media for 1 h and the following IP mixture. The relative gray density of FLAG in GST-pull-down fraction is shown as a bar graph (bottom). One of three independent experiments is presented (top, n = 3). Data are represented as mean ± SEM); P values were determined by one-way ANOVA followed Dunnett’s multiple comparisons test. b Analysis of HA-CRTC2 immunoprecipitated with endogenous CREB from primary hepatocyte lysates. APC (10 μM) was added to the culture media for 1-h before 30-min of stimulation with glucagon (Gluc, 100 nM) and the following IP mixture as indicated. Top panel presents one of three independent experiments, and the relative gray density of HA in CREB-IP-faction is shown as a bar graph (bottom, n = 3). Data are represented as mean ± SEM; P values were determined by one-way ANOVA followed Dunnett’s multiple comparisons test. c Immunoblotting analysis of endogenous CREB, CRTC2, and CBP interaction by an anti-CRTC2 antibody from the lysate of primary hepatocytes. APC (10 μM) was added to the culture media for 1-h before 30-min stimulation with glucagon. Related CREB and CBP normalized by CRTC2, respectively, in CRTC2-IP fractions. The top panel presents one of three independent experiments, and the relative gray density of CREB and CBP normalized to CRTC2 in the CRTC2-IP-faction is shown as a bar graph (bottom, n = 3). Data are represented as mean ± SEM; P values were determined by two-way ANOVA followed Bonferroni’s multiple comparisons test. d Immunoblotting analysis of protein GST-CREB recovered HIS-CRTC2-S171A proteins purified from E. coli. The addition of APC (5, 10, or 50 μM) in pull-down mixtures is indicated. The top part presents one of three independent experiments, and the relative gray density of HIS normalized to GST in GST-pull-down faction is shown as a bar graph (bottom, n = 3). Data are represented as mean ± SEM; P values were determined by one-way ANOVA followed Dunnett’s multiple comparisons test (compared with APC = 0).
Immunoblotting and immunoprecipitation assays were performed as previously described, with antibodies recognizing CREB, Ser133-P-CREB, AMPK, P-AMPK, AKT, P-AKT (Cell Signaling), PGC-1α (Merck), CRTC2 (Calbiochem), PCK1 (Santa Cruz), SREBP1 (Santa Cruz), SREBP2 (BD), HA (Convance), LXRα (Santa Cruz), FLAG (Sigma), GST (Covance), HIS (Abmart), GAPDH (AOGMA), α-TUBULIN (Abmart), β-ACTIN (Abmart), and other antibodies (Supplementary Table 3). For immunostaining assays, primary cultured hepatocytes seeded on coverslips were fixed with 4% paraformaldehyde for 20 min, permeabilized with 0.3% Triton X-100 in PBS, and then blocked by 5% normal goat serum and 0.3% Triton X-100 in PBS, followed by incubation with anti-CREB (1:1000), anti-P-CREB (1:1000), or anti-HA (1:3000) antibodies for 1 h at 4 °C. Slides were then washed, and after washing, slides were incubated with fluorochrome-conjugated secondary antibodies (Invitrogen). Slides were then washed and mounted with Vectashield mounting media containing 4, 6-diamidino-2-phenylindole (DAPI).

luciferase = target: T2, luciferase (Photinus pyralis, UniProt P08659); assay: Luciferase enzymatic assay; type: biochemical; conditions: lysate of HEK293T cells expressing CRE-Luc, 30 min
T2 construct: expressed in transfected cells; host or cells: HEK293T (lysate incubated with compound)
T2 sequence (P08659 whole entry): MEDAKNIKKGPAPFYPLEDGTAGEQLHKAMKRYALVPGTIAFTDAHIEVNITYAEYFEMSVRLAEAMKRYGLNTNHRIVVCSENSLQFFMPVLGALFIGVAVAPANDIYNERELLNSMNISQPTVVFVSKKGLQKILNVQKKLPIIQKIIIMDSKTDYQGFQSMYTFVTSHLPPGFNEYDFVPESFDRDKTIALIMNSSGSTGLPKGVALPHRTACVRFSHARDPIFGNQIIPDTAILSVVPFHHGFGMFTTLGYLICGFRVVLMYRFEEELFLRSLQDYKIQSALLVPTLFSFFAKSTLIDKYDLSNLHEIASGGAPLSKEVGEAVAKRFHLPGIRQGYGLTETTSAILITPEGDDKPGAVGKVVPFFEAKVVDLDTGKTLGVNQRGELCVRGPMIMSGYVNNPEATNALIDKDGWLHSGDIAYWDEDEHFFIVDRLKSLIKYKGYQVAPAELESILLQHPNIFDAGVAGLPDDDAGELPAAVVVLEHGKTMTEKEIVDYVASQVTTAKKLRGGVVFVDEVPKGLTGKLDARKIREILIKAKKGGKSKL
Protocol: HEK293T cells (4 × 10^5 per well of 24-well-plate) were transfected with plasmids expressing CRE-luciferase reporter (50 ng) together with RSV-β-gal (20 ng) by PEI-media overnight and induced by FSK (forskolin 10 nM) for 6-h. The cells were then collected in the lysis buffer (25 mM Gly-gly, 15 mM MgSO4, 4 mM EGTA, 1% V/V Triton X-100, 1 mM DTT, pH 7.8), mixed with an equal volume of luciferase substrate buffer (25 mM Gly-gly, 15 mM MgSO4, 4 mM EGTA, 250 mM potassium phosphate, 2.5 mM ATP, 2 mM DTT, 5 mg/mL luciferin, pH 7.8), and subjected to EnVision Multimode Plate Reader (Perkin/Elmer) to determine generated fluorescent signals.
13 d) Luciferase enzyme activity. The luciferase enzymatic activity from HEK293T cells incubated
The cells ectopically expressed luciferase (CRE-Luc) and were stimulated with FSK (10
15 nM) for 5 h before lysis, and then incubated with various concentrations of propolis for 30 min before
16 luciferase activity determination. One of two independent experiments presented here. Data are
17 represented as mean ± SEM (n=3 per treatment). ns, p > 0.05; *, p < 0.05; **, p < 0.01; p values were
18 determined by one-way ANOVA followed Dunnett’s multiple comparisons test.
13 f) The luciferase enzymatic activity of HEK293T incubated with APC. Cells over-expressed […]
17 determined by one-way ANOVA followed Dunnett’s multiple comparisons test.

T1 sequence (Q01147 whole entry): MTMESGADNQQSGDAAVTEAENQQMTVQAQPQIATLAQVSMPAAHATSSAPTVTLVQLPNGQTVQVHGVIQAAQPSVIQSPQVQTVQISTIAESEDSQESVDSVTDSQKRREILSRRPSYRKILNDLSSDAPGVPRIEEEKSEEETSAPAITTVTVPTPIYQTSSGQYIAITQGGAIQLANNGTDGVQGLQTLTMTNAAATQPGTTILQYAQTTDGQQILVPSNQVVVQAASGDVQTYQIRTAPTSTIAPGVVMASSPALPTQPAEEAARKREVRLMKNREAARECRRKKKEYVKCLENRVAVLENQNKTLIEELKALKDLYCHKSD

## CC(C)=CCc1cc(C=CC(=O)O)cc(CC=C(C)C)c1O [APC, 3,5-diprenyl-4-hydroxycinnamic acid]
Fasting blood glucose; DIO and db/db mice, i.p. 20 mg/kg
  fasting blood glucose levels: remarkably decreased
Fasting blood glucose; CRTC2KO mice, group mean
  blood glucose in CRTC2KO, mean: 3.317
Fasting blood glucose; CRTC2KO mice, single animals
  Blood glucose of CRTC2KO: 3.3 (2×) and 3.8 and 2.6 and 3.1
Fasting blood glucose; WT mice, group mean
  blood glucose in CRTC2KO, mean: 3.65
Fasting blood glucose; WT mice, single animals
  Blood glucose of CRTC2KO: 2.1 and 3.3 and 3.2 (3×) and 4
Fasting blood glucose; Figure 9f, db/db, group mean, n 5
  FBG in db/db, mean: 19.96 mM
Fasting blood glucose; Figure 9f, db/db, single animals
  Fasting blood glucose: 13 mM and 22 mM and 26.3 mM and 18.9 mM and 19.6 mM
Fasting blood glucose; Figure 8d, group mean, n=6, VEH mean 137.4
  Fasting blood glucose, mean of column B: 91.6 mg/dL
Fasting blood glucose; Figure 8d, individual mice
  Fasting blood glucose: 79.2 mg/dL and 84.6 mg/dL and 110.4 mg/dL and 95.4 mg/dL and 102.6 mg/dL and 77.4 mg/dL
Fasting blood glucose; db/db mice, one oral delivery 5 mg/kg
  fasting blood glucose levels: little effect
Fasting blood glucose; group mean, n=6
  fasting blood glucose in db/db mice, mean: 109.4 mg/dL
Fasting blood glucose; high-fat diet, oral 20 mg/kg daily, 3 days
  effect on fasting blood glucose in Crtc2KO mice: abolished
Fasting blood glucose; individual mouse
  fasting blood glucose in db/db mice: 141.4 mg/dL and 95.6 mg/dL and 108 mg/dL and 121.6 mg/dL and 83.4 mg/dL and 106.2 mg/dL
[1]; APC +, Gluc +, APC in IP system +
  HA/CREB in CREB-COIP fraction: 93.4971 and 123.554 and 124.784
[1]; APC +, Gluc +, APC in IP system -
  HA/CREB in CREB-COIP fraction: 234.39 and 222.083 and 222.525
[1]; APC +, Gluc -, APC in IP system +
  HA/CREB in CREB-COIP fraction: 106.115 and 87.7697 and 106.142
[1]; APC +, Gluc -, APC in IP system -
  HA/CREB in CREB-COIP fraction: 166.202 and 169.06 and 171.069
[1]; APC -, Gluc +, APC in IP system +
  HA/CREB in CREB-COIP fraction: 192.388 and 190.79 and 193.652
[1]; APC -, Gluc -, APC in IP system +
  HA/CREB in CREB-COIP fraction: 107.959 and 107.638 and 128.065
[1]; primary hepatocytes, with or without glucagon, APC 10 μM
  HA-tagged CRTC2 immunoprecipitated by anti-CREB antibody: greatly decreased
luciferase
  effect on luciferase enzymatic activity: no effect
